{
  "source": "patent US20240252445A1",
  "about": "“COMPOSITIONS AND METHODS OF PROMOTING AC[…] […] AND DIAGNOSTIC AGENTS IN THE HEART” (CASE WESTERN RESERVE UNIVERSITY, priority 2021, published 2024)",
  "details": "NBDG 1 mg/kg",
  "data": [
    {"molecule": "O=[N+]([O-])c1ccc(N[C@H]2C(O)O[C@H](CO)[C@@H](O)[C@@H]2O)c2nonc12", "note": "(some centres unmarked) [NBDG]", "values": [
      {"measurement": "NBDG fluorescence localisation", "setting": "animals pre-injected with ePL, after organ perfusion", "value": "highly localized in the heart"},
      {"measurement": "NBDG fluorescence in the heart in competition with unlabeled glucose", "setting": "ePL pre-injected, unlabeled glucose 500 mg/kg", "value": "diminished"}
    ]}
  ]
}
